The values below are quoted from earlier work in patent US20110071172A1, “SUBSTITUTED QUINAZOLINES AS BLOOD PLATELET LOWERING AGENTS” (Shire LLC, priority 2008, published 2011).

Data set [1] deals with human phosphodiesterase 111 (PDE III). To be noted: for IC50: read-out: IC50, PDE III inhibition.
Data set [2] deals with human megakaryocytopoiesis.
The test system of data set [3] is erythroid or myelomonocytic differentiation. To be noted: stimulated by erythropoietin or granulocyte-macrophage colony-stimulating factor.

Each structure is given as a SMILES string.

As to `O=C1NC2=Nc3ccc(Cl)c(Cl)c3CN2C1O` (stereo not drawn) [3-hydroxyanagrelide], the “potency as PDE III inhibitor relative to anagrelide” value in data set [1] (ratio versus anagrelide) is reported as “over 40 fold”. In addition, the half-life (usually the time needed for the level to fall by half in the phase considered) (typical) was 2.5 h. Moreover, where the note is “typical exposures versus anagrelide”, the “exposure in vivo relative to parent drug” value is given as 2-3 fold. In addition, the “potency in inhibition of megakaryocytopoiesis relative to parent drug” value in data set [2] (versus anagrelide) was “no more potent than the parent drug”.
In the case of `Cc1[nH]c(=O)c(C#N)cc1-c1ccncc1` [milrinone], in data set [1], the IC50 (as a rule, the midpoint of a concentration-inhibition curve) is 0.17 to 0.35 µM.
`O=C1CN2Cc3c(ccc(Cl)c3Cl)N=C2N1` [Anagrelide, 6,7-dichloro-1,5-dihydroimidazo[2,1-b]-quinazolin-2(3H)-one]: the IC50 is ~0.029 µM in data set [1] and ~0.026 µM in data set [2] (estimated, in vitro, dose-dependent, read-out: IC50, inhibition of TPO-induced megakaryocytopoiesis). For the same compound, the “effect on erythroid or myelomonocytic differentiation” value in data set [3] is “does not affect”. In addition, the first pass effect (in vivo) was > 50%.
